Changes are numbered by the printed parent chain. Where a name gives a salt, the structure may show the parent alone. Read-outs that look alike come from different tables or passages of the source.
Columns and labels:
[1] = tested on: T47D cells; experiment: Cell viability assay (CellTiterGlo); type: cell-based; conditions: Homo sapiens, 144 h
[2] = target: T1, Progesterone PR-B receptors from human breast carcinoma T47D cells (Homo sapiens, UniProt P06401); experiment: PR binding assay ([3H] Progesterone displacement)
T1 sequence (P06401 1-933): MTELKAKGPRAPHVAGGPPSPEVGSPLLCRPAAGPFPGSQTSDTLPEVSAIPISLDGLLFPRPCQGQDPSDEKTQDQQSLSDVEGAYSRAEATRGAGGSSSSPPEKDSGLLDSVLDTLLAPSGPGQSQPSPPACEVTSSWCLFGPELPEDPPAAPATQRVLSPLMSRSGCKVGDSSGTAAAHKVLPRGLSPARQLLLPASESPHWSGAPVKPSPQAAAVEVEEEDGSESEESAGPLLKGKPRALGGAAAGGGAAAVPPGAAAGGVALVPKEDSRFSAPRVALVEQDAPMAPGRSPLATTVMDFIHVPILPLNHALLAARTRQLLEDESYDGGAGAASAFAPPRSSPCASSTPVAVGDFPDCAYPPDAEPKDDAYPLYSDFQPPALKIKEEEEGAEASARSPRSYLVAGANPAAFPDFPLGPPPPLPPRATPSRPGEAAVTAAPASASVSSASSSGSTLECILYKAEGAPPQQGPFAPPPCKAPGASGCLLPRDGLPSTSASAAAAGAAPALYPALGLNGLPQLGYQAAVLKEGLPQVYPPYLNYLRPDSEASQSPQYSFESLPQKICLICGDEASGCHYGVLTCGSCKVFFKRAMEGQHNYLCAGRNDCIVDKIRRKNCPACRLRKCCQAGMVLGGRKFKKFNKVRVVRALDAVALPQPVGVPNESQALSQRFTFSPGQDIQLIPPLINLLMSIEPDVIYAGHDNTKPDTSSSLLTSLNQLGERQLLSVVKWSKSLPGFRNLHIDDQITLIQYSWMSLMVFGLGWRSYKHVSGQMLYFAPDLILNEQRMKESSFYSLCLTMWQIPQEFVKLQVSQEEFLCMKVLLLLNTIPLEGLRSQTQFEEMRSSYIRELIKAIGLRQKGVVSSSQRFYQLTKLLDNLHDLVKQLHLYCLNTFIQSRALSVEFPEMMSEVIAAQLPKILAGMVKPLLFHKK

[3] = tested on: LNCap cells; experiment: Cell viability assay (CellTiterGlo); type: cell-based; conditions: Homo sapiens, 144 h
[4] = target: T2, full-length androgen receptor (HEK293 cells stably expressing) (Homo sapiens, UniProt P10275); experiment: AR antagonism assay (luciferase reporter)
T2 sequence (P10275 1-920): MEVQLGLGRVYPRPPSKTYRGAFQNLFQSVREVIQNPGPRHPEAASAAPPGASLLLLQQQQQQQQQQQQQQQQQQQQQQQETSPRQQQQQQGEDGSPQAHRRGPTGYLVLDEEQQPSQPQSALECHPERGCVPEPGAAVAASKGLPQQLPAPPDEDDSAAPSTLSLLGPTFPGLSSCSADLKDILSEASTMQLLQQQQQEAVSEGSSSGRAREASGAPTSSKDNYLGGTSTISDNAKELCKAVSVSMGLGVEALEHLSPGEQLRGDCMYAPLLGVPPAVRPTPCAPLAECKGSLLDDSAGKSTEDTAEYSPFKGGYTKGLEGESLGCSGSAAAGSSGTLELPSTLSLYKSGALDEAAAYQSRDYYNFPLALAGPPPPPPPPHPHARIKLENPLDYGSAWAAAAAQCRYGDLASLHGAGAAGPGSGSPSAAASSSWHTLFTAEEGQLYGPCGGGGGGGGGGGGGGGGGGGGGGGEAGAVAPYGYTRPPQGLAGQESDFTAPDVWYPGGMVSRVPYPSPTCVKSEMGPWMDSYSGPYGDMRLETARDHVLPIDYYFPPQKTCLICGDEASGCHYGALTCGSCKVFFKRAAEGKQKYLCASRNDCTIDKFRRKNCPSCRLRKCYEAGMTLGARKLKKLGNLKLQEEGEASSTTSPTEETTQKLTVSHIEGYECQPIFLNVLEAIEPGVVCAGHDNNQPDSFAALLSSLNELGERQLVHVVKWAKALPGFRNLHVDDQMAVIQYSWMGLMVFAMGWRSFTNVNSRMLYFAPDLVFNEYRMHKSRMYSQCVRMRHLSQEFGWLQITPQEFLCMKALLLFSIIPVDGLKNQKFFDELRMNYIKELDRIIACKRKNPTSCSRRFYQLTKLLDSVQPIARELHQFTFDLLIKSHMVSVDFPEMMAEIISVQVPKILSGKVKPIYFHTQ

[5] = target: T3, AR (cytosol from LnCaP cells) (Homo sapiens, UniProt P10275, T878A); experiment: AR binding assay (3H-R1881 displacement)
T3 sequence (P10275 1-920 T878A): T2 sequence (P10275 1-920) with T878A
Method: The plate was then centrifuged at 3000 rpm for 30 minutes at 4° C.

[6] = target: T4, ligand binding domain of the glucocorticoid receptor (HEK293 cells stably expressing) (Homo sapiens, UniProt P04150); experiment: GR antagonism assay (luciferase reporter)
T4 sequence (P04150 524-758 limits assumed): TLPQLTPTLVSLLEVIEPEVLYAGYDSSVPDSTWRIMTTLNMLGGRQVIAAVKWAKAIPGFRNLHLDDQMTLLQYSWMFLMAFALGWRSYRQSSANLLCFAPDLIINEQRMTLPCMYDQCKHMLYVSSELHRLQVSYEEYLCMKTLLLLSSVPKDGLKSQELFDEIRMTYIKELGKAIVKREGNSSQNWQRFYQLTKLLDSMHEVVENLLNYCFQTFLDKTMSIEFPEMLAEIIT

[7] = tested on: IEC6 cells; experiment: Cell viability assay (CellTiterGlo); conditions: Rattus norvegicus, IEC-6, 144 h, read-out: IEC-6 (IC50, nM)
[8] = tested on: 22Rv1 cells; experiment: Cell viability assay (CellTiterGlo); conditions: Homo sapiens, 22Rv1, 144 h, read-out: 22RV1 (IC50, nM)
[9] = 6 days incubation, CellTiterGlo, read-out: LNCap (IC50)

CC[C@@]1(OC(=O)N2CCN(CCCCCCN(C)c3ccc([C@H]4C[C@@]5(C)[C@@H](CC[C@]5(OC(C)=O)C(C)=O)[C@@H]5CCC6=CC(=O)CCC6=C54)cc3)CC2)C(=O)OCc2c1cc1n(c2=O)Cc2cc3cc(OC)ccc3nc2-1 [Compound 24, (S)-4-Ethyl-9-methoxy-3,14-dioxo-3,4,12,14-tetrahydro-1H-pyrano[3′,4′:6,7]indolizino[1,2-b]quinolin-4-yl 4-(6-((4-((8S,11R,13S,14S,17R)-17-acetoxy-17-acetyl-13-methyl-3-oxo-2,3,6,7,8,11,12,13,14,15,16,17-dodecahydro-1H-cyclopenta[a]phenanthren-11-yl)phenyl)(methyl)amino)hexyl)piperazine-1-carboxylate Formate]
IC50 ([1]; read-out: T47D (IC50)): 101 to 1000 nM
IC50 [2]: < 10 nM
IC50 ([3]; read-out: LNCap (IC50)): 101 to 1000 nM

CC[C@@]1(O)C(=O)OCc2c1cc1n(c2=O)Cc2cc3c(CN(C)C)c(OC(=O)N4C[C@H](C)N(C(=O)[C@H](CCCNC(N)=O)NC(=O)[C@@H](NCCCCCCN(C)c5ccc([C@H]6C[C@@]7(C)[C@@H](CC[C@]7(OC(C)=O)C(C)=O)[C@@H]7CCC8=CC(=O)CCC8=C76)cc5)C(C)C)C[C@H]4C)ccc3nc2-1 [Compound 35]
IC50 [4]: > 1000 nM
IC50 [5]: 10 to 100 nM
IC50 [6]: 10 to 100 nM
IC50 [7]: > 1000 nM
IC50 ([1]; read-out: T47D (IC50, nM)): 101 to 1000 nM
IC50 [2]: < 10 nM
IC50 ([3]; read-out: LNCap (IC50, nM)): > 1000 nM

CC[C@@]1(O)C(=O)OCc2c1cc1n(c2=O)Cc2c-1nc1cc(F)c(C)c3c1c2[C@@H](NC(=O)CN1CCN(CCCCCCN(C)c2ccc([C@H]4C[C@@]5(C)[C@@H](CC[C@]5(OC(C)=O)C(C)=O)[C@@H]5CCC6=CC(=O)CCC6=C54)cc2)CC1)CC3 [Compound 37, (8S,11R,13S,14S,17R)-17-acetyl-11-(4-((6-(4-(2-(((1S,9S)-9-ethyl-5-fluoro-9-hydroxy-4-methyl-10,13-dioxo-2,3,9,10,13,15-hexahydro-1H,12H-benzo[de]pyrano[3′,4′:6,7]indolizino[1,2-b]quinolin-1-yl)amino)-2-oxoethyl)piperazin-1-yl)hexyl)(methyl)amino)phenyl)-13-methyl-3-oxo-2,3,6,7,8,11,12,13,14,15,16,17-dodecahydro-1H-cyclopenta[a]phenanthren-17-yl acetate]
IC50 [4]: 101 to 1000 nM
IC50 [5]: < 10 nM
IC50 [6]: 10 to 100 nM
IC50 [7]: 101 to 1000 nM
IC50 ([1]; 6 days incubation, CellTiterGlo, read-out: T47D (IC50)): 10 to 100 nM
IC50 [2]: < 10 nM
IC50 [3, 9]: 101 to 1000 nM

CC[C@@]1(O)C(=O)OCc2c1cc1n(c2=O)Cc2c-1nc1cc(F)c(C)c3c1c2[C@@H](NC(=O)COC(=O)N1CCN(CCCCCCN(C)c2ccc([C@H]4C[C@@]5(C)[C@@H](CC[C@]5(OC(C)=O)C(C)=O)[C@@H]5CCC6=CC(=O)CCC6=C54)cc2)CC1)CC3 [Compound 42, 2-(((1S,9S)-9-ethyl-5-fluoro-9-hydroxy-4-methyl-10,13-dioxo-2,3,9,10,13,15-hexahydro-1H,12H-benzo[de]pyrano[3′,4′:6,7]indolizino[1,2-b]quinolin-1-yl)amino)-2-oxoethyl 4-(6-((4-((8S,11R,13S,14S,17R)-17-acetoxy-17-acetyl-13-methyl-3-oxo-2,3,6,7,8,11,12,13,14,15,16,17-dodecahydro-1H-cyclopenta[a]phenanthren-11-yl)phenyl)(methyl)amino)hexyl)piperazine-1-carboxylate]
IC50 [4]: 101 to 1000 nM
IC50 [5]: 10 to 100 nM
IC50 [6]: 10 to 100 nM
IC50 [8]: 101 to 1000 nM
IC50 [7]: > 1000 nM
IC50 [2]: < 10 nM
IC50 [3, 9]: 101 to 1000 nM

CC[C@@]1(O)C(=O)OCc2c1cc1n(c2=O)Cc2cc3c(CN4CCN(CCCCCCC5CCN(c6ccc(C(=O)N[C@H]7CC[C@H](N(C)c8ccc(C#N)c(Cl)c8)CC7)nn6)CC5)CC4)c(O)ccc3nc2-1 [Compound 56, N-((1r,4r)-4-((3-chloro-4-cyanophenyl)(methyl)amino)cyclohexyl)-6-(4-(6-(4-(((S)-4-ethyl-4,9-dihydroxy-3,14-dioxo-3,4,12,14-tetrahydro-1H-pyrano[3′,4′:6,7]indolizino[1,2-b]quinolin-10-yl)methyl)piperazin-1-yl)hexyl)piperidin-1-yl)pyridazine-3-carboxamide]
IC50 [4]: 101 to 1000 nM
IC50 [5]: 101 to 1000 nM
IC50 [8]: 10 to 100 nM
IC50 [7]: 101 to 1000 nM
IC50 [2]: 10 to 100 nM
IC50 [3, 9]: 10 to 100 nM
